Reference: paper PMC10424673 (Journal of Medicinal Chemistry, 2023)
Where a SMILES comes first, the peptide text is derived from it. [ ]: non-standard residue; d: D form. The star is where a group is joined. NHNH2 = NN*

What was measured:
[1] = target: T1, hGLP-2R (Homo sapiens, UniProt O95838); experiment: HTRF cAMP assay in GLP-2R-expressing HEK293 cells; type: cell-based
T1 construct: expressed in transfected cells
T1 sequence (O95838 1-553): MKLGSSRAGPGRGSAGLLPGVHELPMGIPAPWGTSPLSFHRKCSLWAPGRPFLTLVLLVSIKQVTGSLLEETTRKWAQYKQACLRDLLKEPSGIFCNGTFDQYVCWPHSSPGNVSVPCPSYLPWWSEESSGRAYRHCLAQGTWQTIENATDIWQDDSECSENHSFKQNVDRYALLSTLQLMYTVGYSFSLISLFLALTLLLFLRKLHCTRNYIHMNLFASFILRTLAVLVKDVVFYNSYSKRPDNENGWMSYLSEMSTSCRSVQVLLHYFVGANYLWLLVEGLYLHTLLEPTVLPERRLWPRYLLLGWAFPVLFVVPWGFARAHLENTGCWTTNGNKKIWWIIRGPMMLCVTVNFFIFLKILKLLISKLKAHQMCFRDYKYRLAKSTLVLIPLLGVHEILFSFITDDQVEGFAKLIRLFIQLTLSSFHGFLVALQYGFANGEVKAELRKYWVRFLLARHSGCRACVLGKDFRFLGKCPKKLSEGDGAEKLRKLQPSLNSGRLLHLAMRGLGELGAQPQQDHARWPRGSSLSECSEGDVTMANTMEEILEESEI

[2] = test system: GFP under CREB in HEK293 cells stably expressing hGLP-2R; experiment: Western blot of GFP expression under control of CREB in HEK293 cells stably expressing hGLP-2R; type: cell-based, human; details: 10 μM peptide, after 36 hours of incubation, mean ± sd, n = 3
Text: We then investigated the downstream effects of stimulating GLP-2R with the D-GLP-2 analogues to study the D-peptide designs’ effects on GLP-2R. We wanted to determine whether activating GLP-2R with D-GLP-2 analogues would promote GFP expression in HEK293 cells containing a GFP gene under the control of cAMP response element binding protein (CREB) and AKT phosphorylation. We also checked the beta-actin expression in all the treatments as loading controls. Of relevance, all peptides induced a similar GFP expression under the CREB, reaching saturation between 24 and 48 h of incubation (Figures 5E,F, S1A, Table S3). We also found a concentration-dependent increase in GFP expression in response to all the peptides’ stimulation (Figure S1B).
The cells were lysed with a lysis buffer 50 mM Tris-HCl pH 7.4, 1% Nonidet P-40, 150 mM NaCl, 1 mM ethylenediaminetetraacetic acid, 10 mM Na3VO4, 10 mM sodium pyrophosphate, and 25 mM NaF, 1× protease inhibitor mixture (Sigma) for 30 min at 4 °C. […] The transferred samples were immunoblotted with primary antibodies, followed by incubation with horseradish peroxidase-conjugated secondary antibodies (Santa Cruz Biotechnology) and detected using enhanced chemiluminescence (GE Healthcare).

[3] = target: DPP-IV (Homo sapiens, UniProt P27487); details: 20 μM peptide, DPP-IV 50 μg/mL, 100 mM Tris pH 8.0, 2.5 h, SDS-PAGE densitometry and mass spectrometry
Sequence of DPP-IV (P27487 whole entry, species assumed): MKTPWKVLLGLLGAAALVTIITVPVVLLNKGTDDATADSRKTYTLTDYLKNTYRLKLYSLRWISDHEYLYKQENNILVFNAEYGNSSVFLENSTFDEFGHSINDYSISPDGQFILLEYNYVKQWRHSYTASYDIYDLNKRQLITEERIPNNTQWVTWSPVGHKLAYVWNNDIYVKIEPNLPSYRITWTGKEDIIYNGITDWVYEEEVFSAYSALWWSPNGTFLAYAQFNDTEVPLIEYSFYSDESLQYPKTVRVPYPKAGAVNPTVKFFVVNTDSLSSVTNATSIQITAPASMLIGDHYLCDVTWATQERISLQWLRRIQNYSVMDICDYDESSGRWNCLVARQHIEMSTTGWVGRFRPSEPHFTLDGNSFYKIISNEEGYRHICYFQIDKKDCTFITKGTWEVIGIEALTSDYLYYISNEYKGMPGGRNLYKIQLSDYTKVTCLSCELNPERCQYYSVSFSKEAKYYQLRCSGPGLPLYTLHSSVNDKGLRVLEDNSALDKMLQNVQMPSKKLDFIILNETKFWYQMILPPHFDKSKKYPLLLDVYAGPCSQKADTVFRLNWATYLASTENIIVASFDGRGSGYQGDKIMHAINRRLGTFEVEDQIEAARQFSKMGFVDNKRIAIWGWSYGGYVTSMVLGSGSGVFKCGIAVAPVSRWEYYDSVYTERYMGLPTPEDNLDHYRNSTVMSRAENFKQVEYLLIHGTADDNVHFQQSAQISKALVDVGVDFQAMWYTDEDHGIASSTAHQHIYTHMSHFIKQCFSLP

[4] = target: proteinase K (Parengyodontium album, UniProt P06873); details: 20 μM peptide, ProtK 100 μg/mL, 10 mM Tris-base, 10 mM NaCl, pH 7.4, 5 μM CaCl2, 37 °C, SDS-PAGE Coomassie densitometry normalised to T0, repeated three times
Sequence of proteinase K (P06873 106-384): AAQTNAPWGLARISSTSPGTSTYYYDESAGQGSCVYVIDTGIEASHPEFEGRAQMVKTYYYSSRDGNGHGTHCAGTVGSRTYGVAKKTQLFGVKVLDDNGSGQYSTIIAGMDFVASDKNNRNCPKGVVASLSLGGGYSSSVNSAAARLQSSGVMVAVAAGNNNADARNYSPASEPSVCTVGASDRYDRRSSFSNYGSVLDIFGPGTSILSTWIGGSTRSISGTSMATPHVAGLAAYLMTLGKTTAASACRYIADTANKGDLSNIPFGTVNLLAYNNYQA

[5] = target: T2, GLP-2R (Homo sapiens, UniProt O95838); design: method as in PMID 36780786; details: cited from earlier work
T2 construct: host or cells: CHO-K1 PathHunter reporter cells
T2 sequence (P32121 whole entry partner, one chain of several): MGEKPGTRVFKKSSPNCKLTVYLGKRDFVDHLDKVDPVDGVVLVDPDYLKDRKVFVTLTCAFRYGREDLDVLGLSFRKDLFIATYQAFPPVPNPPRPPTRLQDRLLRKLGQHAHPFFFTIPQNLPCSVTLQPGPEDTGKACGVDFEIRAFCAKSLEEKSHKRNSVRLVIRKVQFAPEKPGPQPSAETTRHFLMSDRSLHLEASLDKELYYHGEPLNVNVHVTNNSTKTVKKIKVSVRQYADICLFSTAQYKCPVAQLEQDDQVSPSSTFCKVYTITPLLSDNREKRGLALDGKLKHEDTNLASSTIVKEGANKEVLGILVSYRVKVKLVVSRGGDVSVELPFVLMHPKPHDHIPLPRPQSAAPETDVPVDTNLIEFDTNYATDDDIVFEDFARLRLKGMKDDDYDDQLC

[6] = target: T2, GLP-2R; design: method as in 2 sources, one per row (each row's own in cited_ref): ref 28 (Gadgaard et al.) ||| ref 28 = [28]; PMID 36780786; doi:10.1016/j.biopha.2023.114383; Gadgaard S.; Windeløv J. A.; Schiellerup S. P.; Holst J. J.; Hartmann B.; Rosenkilde M. M. Long-Acting Agonists of Human and Rodent Glp-2 Receptors for Studies of the Physiology and Pharmacologic; details: cited from earlier work

**Q.** Which EC50 [1] does the source give for `CC[C@@H](C)[C@@H](NC(C)=O)C(=O)N[C@H](CCCCN)C(=O)N[C@H](C)C(=O)N[C@H](CCC(N)=O)C(=O)N[C@H](Cc1c[nH]c2ccccc12)C(=O)N[C@H](CC(C)C)C(=O)N[C@H](C)C(=O)N[C@H](C)C(=O)N[C@H](CCC(=O)O)C(=O)N[C@H](Cc1ccccc1)C(=O)N[C@@H](C(=O)N[C@H](CCC(N)=O)C(=O)N[C@H](C)C(=O)N[C@@H](C(=O)N[C@H](C)C(=O)N[C@H](C)C(=O)N[C@@H](C(=O)N[C@H](CC(C)C)C(=O)N[C@H](C)C(=O)N[C@H](CCSC)C(=O)N[C@H](CC(C)C)C(=O)N[C@H](CCCNC(=N)N)C(=O)N[C@H](CC(N)=O)C(=O)N[C@H](CC(N)=O)C(=O)N[C@H](CCC(N)=O)C(=O)N[C@H](Cc1ccccc1)C(=O)N[C@H](CCC(=O)O)C(=O)N[C@H](Cc1ccccc1)C(=O)N[C@H](C)C(=O)NCC(=O)N[C@@H](C(=O)N[C@H](C)C(=O)N[C@H](Cc1c[nH]cn1)C(=O)NN)C(C)C)C(C)C)C(C)C)[C@H](C)CC` [D-GLP-2 E33A hydrazide] (Ac-[dI][dK][dA][dQ][dW][dL][dA][dA][dE][dF][dI][dQ][dA][dV][dA][dA][dV][dL][dA][dM][dL][dR][dN][dN][dQ][dF][dE][dF][dA]G[dV][dA][dH]-NHNH2) here?
**A.** 226 nM

**Q.** What about the “improvement of GLP-2R activation compared to D-GLP-2” value ([1]; ratio of cAMP EC50 values, compared to D-GLP-2) of the same compound?
**A.** 6.26 fold

**Q.** What about the “GFP relative expression level, relative to L-GLP-2-treated cells” value [2] of the same compound?
**A.** 1.08 ± 0.14

**Q.** What does the source list for `CC[C@@H](C)[C@@H](NC(C)=O)C(=O)N[C@H](CCCCN)C(=O)N[C@H](C)C(=O)N[C@H](CCC(N)=O)C(=O)N[C@H](Cc1c[nH]c2ccccc12)C(=O)N[C@H](CC(C)C)C(=O)N[C@H](C)C(=O)N[C@H](C)C(=O)N[C@H](CCC(=O)O)C(=O)N[C@H](Cc1ccccc1)C(=O)N[C@@H](C(=O)N[C@H](CCC(N)=O)C(=O)N[C@H](C)C(=O)N[C@@H](C(=O)N[C@H](C)C(=O)N[C@H](C)C(=O)N[C@@H](C(=O)N[C@H](CC(C)C)C(=O)N[C@H](C)C(=O)N[C@H](CCSC)C(=O)N[C@H](CC(C)C)C(=O)N[C@H](CCCNC(=N)N)C(=O)N[C@H](CC(N)=O)C(=O)N[C@H](CC(N)=O)C(=O)N[C@H](CCC(N)=O)C(=O)N[C@H](Cc1ccccc1)C(=O)N[C@H](CCC(=O)O)C(=O)N[C@H](Cc1ccccc1)C(=O)N[C@H](C)C(=O)NCC(=O)N[C@@H](C(=O)N[C@H](CCC(=O)O)C(=O)N[C@H](Cc1c[nH]cn1)C(N)=O)C(C)C)C(C)C)C(C)C)[C@H](C)CC` [D-GLP-2] (Ac-[dI][dK][dA][dQ][dW][dL][dA][dA][dE][dF][dI][dQ][dA][dV][dA][dA][dV][dL][dA][dM][dL][dR][dN][dN][dQ][dF][dE][dF][dA]G[dV][dE][dH]-NH2)?
**A.** EC50 [1]: 1420 nM; times less potent (weaker EC50) than native L-GLP-2 ([1]; ratio of cAMP EC50 to that of GLP-2): 35 times

**Q.** For `CC[C@H](C)[C@H](NC(=O)[C@H](Cc1ccccc1)NC(=O)[C@H](CC(=O)O)NC(=O)[C@H](CCCNC(=N)N)NC(=O)[C@H](C)NC(=O)[C@H](C)NC(=O)[C@H](CC(C)C)NC(=O)[C@H](CC(N)=O)NC(=O)[C@H](CC(=O)O)NC(=O)[C@H](CC(C)C)NC(=O)[C@@H](NC(=O)[C@@H](NC(=O)[C@H](CC(N)=O)NC(=O)[C@H](CCSC)NC(=O)[C@H](CCC(=O)O)NC(=O)[C@H](CC(=O)O)NC(=O)[C@H](CO)NC(=O)[C@H](Cc1ccccc1)NC(=O)[C@H](CO)NC(=O)CNC(=O)[C@H](CC(=O)O)NC(=O)CNC(=O)[C@@H](N)Cc1c[nH]cn1)[C@@H](C)O)[C@@H](C)CC)C(=O)N[C@@H](CC(N)=O)C(=O)N[C@@H](Cc1c[nH]c2ccccc12)C(=O)N[C@@H](CC(C)C)C(=O)N[C@H](C(=O)N[C@@H](CCC(N)=O)C(=O)N[C@H](C(=O)N[C@@H](CCCCN)C(=O)N[C@H](C(=O)N[C@H](C(=O)N[C@@H](CC(=O)O)C(=O)O)[C@@H](C)O)[C@@H](C)CC)[C@@H](C)O)[C@@H](C)CC` [L-GLP-2-2G], which “peptide remaining after incubation with DPP-IV” value [3] is on record?
**A.** remained intact

**Q.** And the “peptide remaining after proteinase K exposure, 2 h” value [4]?
**A.** almost complete loss

**Q.** What does the source list for “GLP-2_3–33: the product of DPP-IV inactivation of GLP-2_1–33 (DGSFSDEMNTILDNLAARDFINWLIQTKITD; Glucagon-like peptide 2; UniProt P01275 148-178, looked up, fragment)”?
**A.** β-arrestin 1 and 2 recruitment [5]: could not recruit β-arrestin 1 and 2; mode of action at GLP-2R [6]: competitive antagonist of GLP-2_1–33; efficacy at GLP-2R ([6]; ref 28 (Gadgaard et al.)): 11%
